Read-outs that look alike come from different tables or passages of the source.
Key:
rat orexin 1 receptor = rat orexin 1 receptor (Rattus norvegicus (Rat), UniProt P56718); assay: Rat orexin 1 receptor radioligand binding (competitive binding, HEK293 membranes)
human orexin 1 receptor = human orexin 1 receptor (Homo sapiens (Human), UniProt O43613); assay: Human orexin 1 receptor radioligand binding (competitive binding, CHO membranes)
human orexin 2 receptor = human orexin 2 receptor (Homo sapiens (Human), UniProt O43614); assay: Human orexin 2 receptor radioligand binding ([3H]-EMPA competition, HEK293 membranes)
[1] = rat orexin 1 receptor, Table 2, averages from between 2-20 runs, read-out: rOX1 Ki
[2] = human orexin 1 receptor, Table 2, averages from between 2-20 runs, read-out: hOX1 Ki
[3] = human orexin 2 receptor, Table 2, averages from between 2-20 runs, read-out: hOX2 Ki
[4] = Table 2, further testing, averages from 2-20 runs, read-out: hOX2 Ki
[5] = Table 2, further testing, averages from 2-20 runs, read-out: rOX1 Ki
[6] = Table 2, further testing, averages from 2-20 runs, read-out: hOX1 Ki

Chain of human orexin 2 receptor (O43614 whole entry): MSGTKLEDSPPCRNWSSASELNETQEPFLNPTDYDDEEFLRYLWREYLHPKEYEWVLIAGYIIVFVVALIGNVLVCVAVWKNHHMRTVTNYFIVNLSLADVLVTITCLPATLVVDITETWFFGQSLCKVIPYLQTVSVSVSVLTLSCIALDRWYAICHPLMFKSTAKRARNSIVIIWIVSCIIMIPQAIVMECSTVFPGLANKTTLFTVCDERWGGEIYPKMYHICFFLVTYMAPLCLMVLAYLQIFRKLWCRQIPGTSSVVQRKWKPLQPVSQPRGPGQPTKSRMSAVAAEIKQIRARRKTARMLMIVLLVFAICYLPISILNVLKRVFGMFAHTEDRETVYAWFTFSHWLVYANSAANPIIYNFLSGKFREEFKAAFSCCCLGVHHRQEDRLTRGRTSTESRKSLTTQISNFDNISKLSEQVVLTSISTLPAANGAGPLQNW
Chain of rat orexin 1 receptor (P56718 whole entry): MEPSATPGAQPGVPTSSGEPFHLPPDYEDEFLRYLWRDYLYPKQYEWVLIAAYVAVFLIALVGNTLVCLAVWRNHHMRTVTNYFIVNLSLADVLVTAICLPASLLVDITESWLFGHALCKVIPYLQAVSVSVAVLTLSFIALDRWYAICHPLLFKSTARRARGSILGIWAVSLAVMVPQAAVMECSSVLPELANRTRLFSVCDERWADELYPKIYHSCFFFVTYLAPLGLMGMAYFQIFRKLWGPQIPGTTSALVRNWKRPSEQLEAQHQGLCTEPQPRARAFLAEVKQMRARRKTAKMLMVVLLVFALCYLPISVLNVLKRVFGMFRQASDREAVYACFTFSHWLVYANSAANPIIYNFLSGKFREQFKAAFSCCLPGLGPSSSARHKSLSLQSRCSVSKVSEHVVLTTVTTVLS
Chain of human orexin 1 receptor (O43613 whole entry): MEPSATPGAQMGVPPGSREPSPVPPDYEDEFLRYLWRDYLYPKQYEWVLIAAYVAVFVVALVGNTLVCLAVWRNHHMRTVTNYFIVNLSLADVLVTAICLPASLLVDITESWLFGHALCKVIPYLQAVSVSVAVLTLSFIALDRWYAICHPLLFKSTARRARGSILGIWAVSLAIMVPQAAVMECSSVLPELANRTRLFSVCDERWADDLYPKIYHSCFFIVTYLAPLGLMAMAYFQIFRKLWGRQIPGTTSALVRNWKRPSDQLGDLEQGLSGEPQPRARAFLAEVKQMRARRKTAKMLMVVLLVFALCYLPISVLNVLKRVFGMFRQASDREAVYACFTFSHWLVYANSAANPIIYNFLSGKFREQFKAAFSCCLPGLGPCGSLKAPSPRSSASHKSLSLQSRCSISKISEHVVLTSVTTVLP

Structure (SMILES) | Ki (rat orexin 1 receptor; [1]) [nM] | Ki (human orexin 1 receptor; [2]) [nM] | Ki (human orexin 2 receptor; [3]) [nM] | Ki (human orexin 1 receptor; read-out: hOX1 Ki) [nM] | Ki (rat orexin 1 receptor; read-out: rOX1 Ki) [nM] | other results
CN(c1ccc(C(F)(F)F)cn1)[C@@H]1C[C@H]2CC[C@@H]1N2C(=O)c1cccc(F)c1-c1ncccn1 [Example 377, (3-fluoro-2-(pyrimidin-2-yl)phenyl)((1S,2R,4R)-2-(methyl(5-(trifluoromethyl)pyridin-2-yl)amino)-7-azabicyclo[2.2.1]heptan-7-yl)methanone] | 224 | 141 | 9000 | – | – | –
Cc1cccc(C(=O)N2[C@@H]3CC[C@H]2[C@H](Nc2ncc(Br)cn2)C3)c1-c1ncccn1 [Example 316, ((1S,2R,4R)-2-((5-bromopyrimidin-2-yl)amino)-7-azabicyclo[2.2.1]heptan-7-yl)(3-methyl-2-(pyrimidin-2-yl)phenyl)methanone] | 20 | – | 796 | 59 | – | –
O=C(c1cccc(F)c1-c1ncccn1)N1[C@@H]2CC[C@H]1[C@H](Nc1ncc(C(F)(F)F)cc1F)C2 [Example 382, (3-fluoro-2-(pyrimidin-2-yl)phenyl)((1S,2R,4R)-2-((3-fluoro-5-(trifluoromethyl)pyridin-2-yl)amino)-7-azabicyclo[2.2.1]heptan-7-yl)methanone] | 18 | 15 | 1100 | – | – | –
O=C(c1cccc(F)c1-c1ncccn1)N1C2CCC1C(Oc1ccc(C(F)(F)F)cn1)C2 (racemic) [Example 429] | – | – | 6300 | – | – | Ki (rat orexin 1 receptor): 77 nM; Ki (human orexin 1 receptor): 120 nM
Cc1cnc(C(=O)N2[C@@H]3CC[C@H]2[C@H](Nc2cnc(C(F)(F)F)cn2)C3)c(-c2ncccn2)c1 [Example 405, (5-methyl-3-(pyrimidin-2-yl)pyridin-2-yl)((1S,2R,4R)-2-((5-(trifluoromethyl)pyrazin-2-yl)amino)-7-azabicyclo[2.2.1]heptan-7-yl)methanone] | – | – | – | 59 | 53 | Ki (human orexin 2 receptor; read-out: hOX2 Ki): > 10000 nM
Cc1cccc(C(=O)N2[C@@H]3CC[C@H]2[C@H](Nc2ccc(C#N)cn2)C3)c1-n1nccn1 [Example 391, 6-(((1S,2R,4R)-7-(3-methyl-2-(2H-1,2,3-triazol-2-yl)benzoyl)-7-azabicyclo[2.2.1]heptan-2-yl)amino)nicotinonitrile] | 220 | 315 | 4400 | – | – | –
O=C(c1cccc(F)c1-n1nccn1)N1[C@@H]2CC[C@H]1[C@H](Nc1ccc(Br)cn1)C2 [Example 305, ((1S,2R,4R)-2-((5-bromopyridin-2-yl)amino)-7-azabicyclo[2.2.1]heptan-7-yl)(3-fluoro-2-(2H-1,2,3-triazol-2-yl)phenyl)methanone] | – | – | 980 | 12 | 24 | –
O=C(c1ccc(F)cc1-n1nccn1)N1[C@@H]2CC[C@H]1[C@H](Nc1ccc(C(F)(F)F)cn1)C2 [Example 368, (4-fluoro-2-(2H-1,2,3-triazol-2-yl)phenyl)((1S,2R,4R)-2-((5-(trifluoromethyl)pyridin-2-yl)amino)-7-azabicyclo[2.2.1]heptan-7-yl)methanone] | 78 | 71 | 2600 | – | – | –
O=C(c1cccc(F)c1-c1ncccn1)N1C2CCC1C(Nc1ccc(Br)cn1)C2 [Example 303, ((1S,2R,4R)-2-((5-bromopyridin-2-yl)amino)-7-azabicyclo[2.2.]heptan-7-yl)(3-fluoro-2-(pyrimidin-2-yl)phenyl)methanone] | – | – | 1300 | 16 | 22 | –
O=C(c1cccc(F)c1-c1ncccn1)N1[C@@H]2CC[C@H]1[C@H](Nc1ncc(C(F)(F)F)cc1Cl)C2 [Example 384, ((1S,2R,4R)-2-((3-chloro-5-(trifluoromethyl)pyridin-2-yl)amino)-7-azabicyclo[2.2.1]heptan-7-yl)(3-fluoro-2-(pyrimidin-2-yl)phenyl)methanone] | 15 | 12 | 612 | – | – | –
Cc1cccc(C(=O)N2C3CCC2C(Oc2ccc(C(F)(F)F)cn2)C3)c1-n1nccn1 (racemic) [Example 422] | 91 | 57 | 2150 | – | – | –
Cc1cccc(C(=O)N2[C@@H]3CC[C@H]2[C@H](Nc2ccc(Br)cn2)C3)c1-n1nccn1 [Example 306, ((1S,2R,4R)-2-((5-bromopyridin-2-yl)amino)-7-azabicyclo[2.2.1]heptan-7-yl)(3-methyl-2-(2H-1,2,3-triazol-2-yl)phenyl)methanone] | – | – | 396 | 4 | 11 | –
Cc1cccc(C(=O)N2C3CCC2C(Oc2ccc(C(F)(F)F)cn2)C3)c1-c1ncco1 (racemic) [Example 435] | – | – | – | – | – | Ki (rat orexin 1 receptor): 50 nM; Ki (human orexin 1 receptor): 29 nM; Ki (human orexin 2 receptor): 520 nM
O=C(c1ccccc1-c1ncccn1)N1[C@@H]2CC[C@H]1[C@H](Nc1ccc(C(F)(F)F)cn1)C2 [Example 373, (2-(pyrimidin-2-yl)phenyl)((1S,2R,4R)-2-((5-(trifluoromethyl)pyridin-2-yl)amino)-7-azabicyclo[2.2.1]heptan-7-yl)methanone] | – | – | 679 | 36 | 34 | –
Cc1cccc(C(=O)N2[C@@H]3CC[C@H]2[C@H](Nc2ncc(Br)cn2)C3)c1-c1ncco1 [Example 314, ((1S,2R,4R)-2-((5-bromopyrimidin-2-yl)amino)-7-azabicyclo[2.2.1]heptan-7-yl)(3-methyl-2-(oxazol-2-yl)phenyl)methanone] | – | – | 349 | 14 | 6 | –
Cc1ccc(-n2nccn2)c(C(=O)N2[C@@H]3CC[C@H]2[C@H](Nc2ncc(C(F)(F)F)cc2F)C3)n1 [Example 451, ((1S,2R,4R)-2-((3-fluoro-5-(trifluoromethyl)pyridin-2-yl)amino)-7-azabicyclo[2.2.1]heptan-7-yl)(6-methyl-3-(2H-1,2,3-triazol-2-yl)pyridin-2-yl)methanone] | – | – | – | 84 | 82 | Ki (human orexin 2 receptor; [4]): 517 nM
O=C(c1cccc(F)c1-c1ncccn1)N1[C@@H]2CC[C@H]1[C@H](Nc1ccc(C(F)F)cn1)C2 [Example 389, ((1S,2R,4R)-2-((5-(difluoromethyl)pyridin-2-yl)amino)-7-azabicyclo[2.2.1]heptan-7-yl)(3-fluoro-2-(pyrimidin-2-yl)phenyl)methanone] | 123 | 168 | 741 | – | – | –
O=C(c1cc(F)ccc1-c1ncccn1)N1[C@@H]2CC[C@H]1[C@H](Nc1ncc(C(F)(F)F)cn1)C2 [Example 415, (5-fluoro-2-(pyrimidin-2-yl)phenyl)((1S,2R,4R)-2-((5-(trifluoromethyl)pyrimidin-2-yl)amino)-7-azabicyclo[2.2.1]heptan-7-yl)methanone] | 102 | – | – | 70 | – | Ki (human orexin 2 receptor; read-out: hOX2 Ki): 2100 nM
O=C(c1c(F)cccc1-c1ncccn1)N1[C@@H]2CC[C@H]1[C@H](Nc1ccc(C(F)(F)F)cn1)C2 [Example 372, (2-fluoro-6-(pyrimidin-2-yl)phenyl)((1S,2R,4R)-2-((5-(trifluoromethyl)pyridin-2-yl)amino)-7-azabicyclo[2.2.1]heptan-7-yl)methanone] | – | – | 420 | 13 | 19 | –
O=C(c1ccccc1-n1nccn1)N1C2CCC1C(Oc1ccc(C(F)(F)F)cn1)C2 (racemic) [Example 421] | – | – | 4200 | – | – | Ki (rat orexin 1 receptor): 205 nM; Ki (human orexin 1 receptor): 154 nM
Cc1cccc(C(=O)N2[C@@H]3CC[C@H]2[C@H](Nc2ccc(C#N)cn2)C3)c1-c1ncco1 [Example 394, 6-(((1S,2R,4R)-7-(3-methyl-2-(oxazol-2-yl)benzoyl)-7-azabicyclo[2.2.1]heptan-2-yl)amino)nicotinonitrile] | 187 | 250 | 2100 | – | – | –
O=C(c1cc(F)ccc1-c1ncco1)N1[C@@H]2CC[C@H]1[C@H](Nc1cnc(C(F)(F)F)cn1)C2 [Example 410, (5-fluoro-2-(oxazol-2-yl)phenyl)((1S,2R,4R)-2-((5-(trifluoromethyl)pyrazin-2-yl)amino)-7-azabicyclo[2.2.1]heptan-7-yl)methanone] | – | – | 1000 | 90 | 67 | –
O=C(c1cccc(F)c1-c1ncccn1)N1[C@@H]2CC[C@H]1[C@H](Nc1cnc(C(F)(F)F)cn1)C2 [Example 238, (3-fluoro-2-(pyrimidin-2-yl)phenyl)((1S,2R,4R)-2-((5-(trifluoromethyl)pyrazin-2-yl)amino)-7-azabicyclo[2.2.1]heptan-7-yl)methanone] | – | – | – | – | – | Ki (rat orexin 1 receptor): 15 nM; Ki (human orexin 1 receptor): 15 nM; Ki (human orexin 2 receptor): 763 nM
O=C(c1c(F)cccc1-c1ncccn1)N1[C@@H]2CC[C@H]1[C@H](Nc1ncc(C(F)(F)F)cc1F)C2 [Example 459, ((1S,2R,4R)-2-((3-fluoro-5-(trifluoromethyl)pyridin-2-yl)amino)-7-azabicyclo[2.2.1]heptan-7-yl)(2-fluoro-6-(pyrimidin-2-yl)phenyl)methanone] | – | – | – | – | – | Ki (rat orexin 1 receptor; [5]): 26 nM; Ki (human orexin 1 receptor; [6]): 71 nM; Ki (human orexin 2 receptor; [4]): 530 nM
O=C(c1ccccc1-c1ncccn1)N1C2CCC1C(Oc1ccc(C(F)(F)F)cn1)C2 (racemic) [Example 432] | 147 | 307 | 6000 | – | – | –
Cc1cccc(C(=O)N2[C@@H]3CC[C@H]2[C@H](Nc2cnc(Br)cn2)C3)c1-n1nccn1 [Example 312, ((1S,2R,4R)-2-((5-bromopyrazin-2-yl)amino)-7-azabicyclo[2.2.1]heptan-7-yl)(3-methyl-2-(2H-1,2,3-triazol-2-yl)phenyl)methanone] | – | – | 360 | 9 | 6 | –
O=C(c1ccccc1-c1ncccn1)N1[C@@H]2CC[C@H]1[C@H](Nc1ncc(C(F)(F)F)cc1F)C2 [Example 461, ((1S,2R,4R)-2-((3-fluoro-5-(trifluoromethyl)pyridin-2-yl)amino)-7-azabicyclo[2.2.1]heptan-7-yl)(2-(pyrimidin-2-yl)phenyl)methanone] | – | – | – | – | – | Ki (rat orexin 1 receptor; [5]): 30 nM; Ki (human orexin 1 receptor; [6]): 24 nM; Ki (human orexin 2 receptor; [4]): 760 nM

Reference: patent publication US9637496B2, “Substituted 7-azabicycles and their use as orexin receptor modulators” (priority 2013, dated 2017)
